Legend:
[1] = tested on: human tumor cell lines; test: NCI in vitro cancer screen, whole panel (summary statements); assay type: cell-based; settings: result in words
[2] = tested on: UACC-62; test: NCI in vitro cancer screen, Melanoma; assay type: cell-based, human; settings: UACC-62, unit not printed (M)
[3] = tested on: SF-268; test: NCI in vitro cancer screen, CNS Cancer; assay type: cell-based, human; settings: SF-268, unit not printed (M)
[4] = tested on: PC-3; test: NCI in vitro cancer screen, Prostate Cancer; assay type: cell-based, human; settings: PC-3, unit not printed (M)
[5] = tested on: HOP-92; test: NCI in vitro cancer screen, Non-Small Cell Lung Cancer; assay type: cell-based, human; settings: HOP (second HOP line), unit not printed (M)
[6] = tested on: NCI-H23; test: as above; assay type: cell-based, human; settings: NCI-H23, unit not printed (M)
[7] = tested on: T-47D; test: NCI in vitro cancer screen, Breast Cancer; assay type: cell-based, human; settings: unit not printed (M)
[8] = tested on: CAKI-1; test: NCI in vitro cancer screen, Renal Cancer; assay type: cell-based, human; settings: CAKI-1, unit not printed (M)
[9] = tested on: A498; test: NCI in vitro cancer screen, Renal Cancer; assay type: cell-based, human; settings: A498, unit not printed (M)
[10] = tested on: HOP-62; test: NCI in vitro cancer screen, Non-Small Cell Lung Cancer; assay type: cell-based, human; settings: HOP (first HOP line), unit not printed (M)
[11] = tested on: HT29; test: NCI in vitro cancer screen, Colon Cancer; assay type: cell-based, human; settings: HT29, unit not printed (M)
[12] = tested on: OVCAR-5; test: NCI in vitro cancer screen, Ovarian Cancer; assay type: cell-based, human; settings: OVCAR-5, unit not printed (M)
[13] = tested on: MOLT-4; test: NCI in vitro cancer screen, Leukemia; assay type: cell-based, human; settings: MOLT, unit not printed (M)
[14] = tested on: U251; test: NCI in vitro cancer screen, CNS Cancer; assay type: cell-based, human; settings: U251, unit not printed (M)
[15] = tested on: OVCAR-4; test: NCI in vitro cancer screen, Ovarian Cancer; assay type: cell-based, human; settings: OVCAR-4, unit not printed (M)
[16] = tested on: HL-60 (TB); test: NCI in vitro cancer screen, Leukemia; assay type: cell-based, human; settings: HL-60(TB), unit not printed (M)
[17] = tested on: COLO 205; test: NCI in vitro cancer screen, Colon Cancer; assay type: cell-based, human; settings: COLO, unit not printed (M)
[18] = tested on: KM12; test: NCI in vitro cancer screen, Colon Cancer; assay type: cell-based, human; settings: KM12, unit not printed (M)
[19] = tested on: LOX IMVI; test: NCI in vitro cancer screen, Melanoma; assay type: cell-based, human; settings: unit not printed (M)
[20] = tested on: TK-10; test: NCI in vitro cancer screen, Renal Cancer; assay type: cell-based, human; settings: TK-10, unit not printed (M)
[21] = tested on: SN12C; test: NCI in vitro cancer screen, Renal Cancer; assay type: cell-based, human; settings: unit not printed (M)
[22] = tested on: ADR-RES (NCI/ADR-RES); test: NCI in vitro cancer screen, Ovarian Cancer; assay type: cell-based, human; settings: NCI/ADR-RES, unit not printed (M)
[23] = tested on: RPMI-8226; test: NCI in vitro cancer screen, Leukemia; assay type: cell-based, human; settings: RPMI, unit not printed (M)
[24] = tested on: SK-MEL-2; test: NCI in vitro cancer screen, Melanoma; assay type: cell-based, human; settings: SK-MEL-2, unit not printed (M)
[25] = tested on: SF-539; test: NCI in vitro cancer screen, CNS Cancer; assay type: cell-based; settings: SF-539, unit not printed (M)
[26] = tested on: HCT-15; test: NCI in vitro cancer screen, Colon Cancer; assay type: cell-based, human; settings: HCT-15, unit not printed (M)
[27] = tested on: NCI-H460; test: NCI in vitro cancer screen, Non-Small Cell Lung Cancer; assay type: cell-based, human; settings: NCI-H460, unit not printed (M)
[28] = tested on: MALME-3M; test: NCI in vitro cancer screen, Melanoma; assay type: cell-based, human; settings: MALME-3M, unit not printed (M)
[29] = tested on: UO-31; test: NCI in vitro cancer screen, Renal Cancer; assay type: cell-based, human; settings: UO-31, unit not printed (M)
[30] = Homo sapiens, read-out: LC50 (the source's name)

Structure (SMILES): COc1cc(/C=C/c2cc(O)cc(O)c2CC=C(C)C)ccc1O [USYDS10, (E)-2-(3-methyl-2-buten-1-yl)-3,4′,5-trihydroxy-3′-methoxystilbene]
- inhibition of cancerous cell growth [1]: structure dependent inhibition of cancerous cell growth
- GI50 ([2]; Homo sapiens): 0.521 µM
- CC50 [2, 30]: 42.8 µM
- TGI [2]: 1.55E−5
- GI50 ([3]; Homo sapiens): 1.4 µM
- CC50 [3, 30]: > 100 µM
- TGI [3]: 4.96E−5
- GI50 ([4]; Homo sapiens): 2.27 µM
- CC50 [4, 30]: > 100 µM
- TGI [4]: 3.12E−5
- TGI [5]: 2.63E−5
- GI50 ([5]; Homo sapiens, HOP-92): 0.398 µM
- CC50 ([5]; Homo sapiens, HOP-92, read-out: LC50 (the source's name)): 93.2 µM
- GI50 ([6]; Homo sapiens): 0.38 µM
- LC50 ([6]; Homo sapiens): 78.3 µM
- TGI [6]: 1.52E−5
- GI50 ([7]; Homo sapiens, T47D): 1.47 µM
- CC50 ([7]; Homo sapiens, T47D, read-out: LC50 (the source's name)): > 100 µM
- TGI [7]: 2.47E−5
- TGI [8]: 6.68E−5
- GI50 ([8]; Homo sapiens): 0.539 µM
- CC50 [8, 30]: > 100 µM
- TGI [9]: 7.85E−6
- GI50 ([9]; Homo sapiens): 2.17 µM
- CC50 [9, 30]: 34.8 µM
- TGI [10]: 1.77E−5
- GI50 ([10]; Homo sapiens, HOP-62): 0.581 µM
- CC50 ([10]; Homo sapiens, HOP-62, read-out: LC50 (the source's name)): 42.3 µM
- TGI [11]: 2.13E−5
- GI50 ([11]; Homo sapiens, HT-29): 5.72 µM
- CC50 ([11]; Homo sapiens, HT-29, read-out: LC50 (the source's name)): 69 µM
- GI50 ([12]; Homo sapiens): 8.92 µM
- CC50 [12, 30]: 83.1 µM
- TGI [12]: 2.80E−5
- GI50 ([13]; Homo sapiens, MOLT-4): 0.596 µM
- CC50 ([13]; Homo sapiens, MOLT-4, read-out: LC50 (the source's name)): > 100 µM
- TGI [13]: 1.99E−5
- GI50 ([14]; Homo sapiens, U-251): 0.419 µM
- CC50 ([14]; Homo sapiens, U-251, read-out: LC50 (the source's name)): 78.8 µM
- TGI [14]: 1.62E−5
- GI50 ([15]; Homo sapiens): 1.03 µM
- CC50 [15, 30]: 57.7 µM
- TGI [15]: 1.82E−5
- TGI [16]: 1.88E−6
- GI50 ([16]; Homo sapiens): 0.327 µM
- CC50 [16, 30]: > 100 µM
- TGI [17]: 2.97E−5
- GI50 ([17]; Homo sapiens, COLO 205): 15.3 µM
- CC50 ([17]; Homo sapiens, COLO 205, read-out: LC50 (the source's name)): 57.7 µM
- GI50 ([18]; Homo sapiens): 0.497 µM
- CC50 [18, 30]: 85.8 µM
- TGI [18]: 1.53E−5
- GI50 ([19]; Homo sapiens): 0.572 µM
- CC50 [19, 30]: 80 µM
- TGI [19]: 1.93E−5
- GI50 ([20]; Homo sapiens): 9.55 µM
- LC50 ([20]; Homo sapiens): > 100 µM
- TGI [20]: 5.15E−5
- GI50 ([21]; Homo sapiens): 0.671 µM
- CC50 [21, 30]: > 100 µM
- TGI [21]: 2.98E−5
- GI50 ([22]; Homo sapiens): 0.183 µM
- CC50 [22, 30]: > 100 µM
- TGI [22]: 8.04E−7
- GI50 ([23]; Homo sapiens, RPMI-8226): 0.324 µM
- CC50 ([23]; Homo sapiens, RPMI-8226, read-out: LC50 (the source's name)): > 100 µM
- TGI [23]: 1.63E−5
- GI50 ([24]; Homo sapiens): 0.576 µM
- LC50 ([24]; Homo sapiens): > 100 µM
- TGI [24]: 3.26E−5
- GI50 ([25]; Homo sapiens): 0.376 µM
- CC50 [25, 30]: 41.7 µM
- TGI [25]: 1.29E−5
- TGI [26]: 2.09E−5
- GI50 ([26]; Homo sapiens): 0.498 µM
- CC50 [26, 30]: > 100 µM
- GI50 ([27]; Homo sapiens): 0.381 µM
- CC50 [27, 30]: 66.1 µM
- TGI [27]: 1.29E−5
- GI50 ([28]; Homo sapiens): 18.7 µM
- CC50 [28, 30]: 92.9 µM
- TGI [28]: 4.17E−5
- GI50 ([29]; Homo sapiens): 0.878 µM
- CC50 [29, 30]: 95.2 µM
- TGI [29]: 2.17E−5

— US10696615B2, “Prenylated hydroxystilbenes” (The University of Sydney, priority 2011, dated 2020)
